Laboratory results: PMC5218480 (PLoS ONE, 2017)

Test system: MV-4-11 cells
Assay: Gene expression microarray analysis (Affymetrix PrimeView) and GSEA
Format: cell-based, human
Design: RFU PODN (11730768_x_at) / Fold change /veh PODN (11730768_x_at) / RFU LINC00158 (11744669_a_at) / Fold change /veh LINC00158 (11744669_a_at) / RFU DUSP10 (11751237_a_at) / Fold change /veh DUSP10 (11751237_a_at) / RFU ID3 (11757404_x_at) / Fold change /veh ID3 (11757404_x_at) / RFU PLEKHG5 (11737974_s_at) / Fold change /veh PLEKHG5 (11737974_s_at) / RFU LRRC4B (11730491_at) / Fold change /veh LRRC4B (11730491_at) / RFU GIMAP4 (11747438_a_at) / Fold change /veh GIMAP4 (11747438_a_at) / RFU KRT8 (11758183_x_at) / Fold change /veh KRT8 (11758183_x_at) / RFU CNN1 (11734310_a_at) / Fold change /veh CNN1 (11734310_a_at) / RFU VPS37D (11726825_at) / Fold change /veh VPS37D (11726825_at) / RFU C10orf10 (11716522_x_at) / Fold change /veh C10orf10 (11716522_x_at) / RFU KIR2DL2 /// KIR2DL4 /// KIR2DL5A /// KIR2DL5B /// KIR2DS1 /// KIR2DS2 /// KIR2DS3 /// KIR2DS4 /// KIR3DL3 /// KIR3DL3 /// KIR3DS1 (11738374_at) / Fold change /veh KIR2DL2 /// KIR2DL4 /// KIR2DL5A /// KIR2DL5B /// KIR2DS1 /// KIR2DS2 /// KIR2DS3 /// KIR2DS4 /// KIR3DL3 /// KIR3DL3 /// KIR3DS1 (11738374_at) / RFU C1QL1 (11718748_at) / Fold change /veh C1QL1 (11718748_at) / RFU TMPRSS4 (11747572_a_at) / Fold change /veh TMPRSS4 (11747572_a_at) / RFU HAMP (11756126_x_at) / Fold change /veh HAMP (11756126_x_at) / RFU RNFT2 (11725882_a_at) / Fold change /veh RNFT2 (11725882_a_at) / RFU NR4A2 (11747474_a_at) / Fold change /veh NR4A2 (11747474_a_at) / RFU ABCC12 (11746883_a_at) / Fold change /veh ABCC12 (11746883_a_at) / RFU TMEM136 (11760407_x_at) / Fold change /veh TMEM136 (11760407_x_at) / RFU CLDN22 /// WWC2 (11732394_at) / Fold change /veh CLDN22 /// WWC2 (11732394_at) / RFU HLA-DPB1 (11760878_x_at) / Fold change /veh HLA-DPB1 (11760878_x_at) / RFU SPINT1 (11716480_a_at) / Fold change /veh SPINT1 (11716480_a_at) / RFU GAP43 (11754022_s_at) / Fold change /veh GAP43 (11754022_s_at) / RFU A4GNT (11735810_at) / Fold change /veh A4GNT (11735810_at) / RFU PRB3 (11715151_x_at) / Fold change /veh PRB3 (11715151_x_at) / RFU TUBB4B (11761932_at) / Fold change /veh TUBB4B (11761932_at) / RFU CAPN14 (11732068_a_at) / Fold change /veh CAPN14 (11732068_a_at) / RFU TMCC2 (11721928_a_at) / Fold change /veh TMCC2 (11721928_a_at) / RFU IRGQ (11745062_a_at) / Fold change /veh IRGQ (11745062_a_at) / RFU FAM174B (11720279_a_at) / Fold change /veh FAM174B (11720279_a_at) / RFU TMPRSS4 (11748680_a_at) / Fold change /veh TMPRSS4 (11748680_a_at) / RFU FAM212B (11763350_a_at) / Fold change /veh FAM212B (11763350_a_at) / RFU PLEKHG5 (11743358_a_at) / Fold change /veh PLEKHG5 (11743358_a_at) / RFU ZSCAN30 (11745921_a_at) / Fold change /veh ZSCAN30 (11745921_a_at) / RFU CMKLR1 (11741424_a_at) / Fold change /veh CMKLR1 (11741424_a_at) / RFU LOC101060620 /// MAPK8IP1 (11723275_at) / Fold change /veh LOC101060620 /// MAPK8IP1 (11723275_at) / RFU SPTSSB (11747773_x_at) / Fold change /veh SPTSSB (11747773_x_at) / RFU PRSS12 (11739890_at) / Fold change /veh PRSS12 (11739890_at) / RFU BIN1 (11741810_x_at) / Fold change /veh BIN1 (11741810_x_at) / RFU WNT11 (11732464_a_at) / Fold change /veh WNT11 (11732464_a_at) / RFU C10orf10 (11716521_a_at) / Fold change /veh C10orf10 (11716521_a_at) / RFU C5orf56 (11738089_at) / Fold change /veh C5orf56 (11738089_at) / RFU CYB561 (11721691_x_at) / Fold change /veh CYB561 (11721691_x_at) / RFU ANKRD19P (11752326_a_at) / Fold change /veh ANKRD19P (11752326_a_at) / RFU OR2T12 /// OR2T33 /// OR2T8 (11738714_s_at) / Fold change /veh OR2T12 /// OR2T33 /// OR2T8 (11738714_s_at) / RFU VCAN (11748164_a_at) / Fold change /veh VCAN (11748164_a_at) / RFU JSRP1 (11732532_at) / Fold change /veh JSRP1 (11732532_at) / RFU KRTAP10-11 (11738290_x_at) / Fold change /veh KRTAP10-11 (11738290_x_at) / RFU MYO3A (11730013_a_at) / Fold change /veh MYO3A (11730013_a_at) / RFU EBF3 (11725865_a_at) / Fold change /veh EBF3 (11725865_a_at) / RFU CAMK2N1 (11719241_x_at) / Fold change /veh CAMK2N1 (11719241_x_at) / RFU C5orf56 (11738088_a_at) / Fold change /veh C5orf56 (11738088_a_at) / RFU OLFML3 (11715873_a_at) / Fold change /veh OLFML3 (11715873_a_at) / RFU LOC100653217 /// NTM (11731650_a_at) / Fold change /veh LOC100653217 /// NTM (11731650_a_at) / RFU MAPK11 (11762145_a_at) / Fold change /veh MAPK11 (11762145_a_at) / RFU FIZ1 (11724087_x_at) / Fold change /veh FIZ1 (11724087_x_at) / RFU OASL (11726364_x_at) / Fold change /veh OASL (11726364_x_at) / RFU SOX15 (11748057_x_at) / Fold change /veh SOX15 (11748057_x_at) / RFU CD79A (11719716_a_at) / Fold change /veh CD79A (11719716_a_at) / RFU HIST1H1D (11736915_at) / Fold change /veh HIST1H1D (11736915_at) / RFU CASKIN2 (11723855_a_at) / Fold change /veh CASKIN2 (11723855_a_at) / RFU LOC730098 (11760151_x_at) / Fold change /veh LOC730098 (11760151_x_at) / RFU OR4N2 (11742367_at) / Fold change /veh OR4N2 (11742367_at) / RFU PRRT2 (11749266_a_at) / Fold change /veh PRRT2 (11749266_a_at) / RFU SNX32 (11753110_a_at) / Fold change /veh SNX32 (11753110_a_at) / RFU CDHR5 (11726645_a_at) / Fold change /veh CDHR5 (11726645_a_at) / RFU RCAN1 (11760418_a_at) / Fold change /veh RCAN1 (11760418_a_at) / RFU FAM167A (11723789_a_at) / Fold change /veh FAM167A (11723789_a_at) / RFU FAM26E (11764081_at) / Fold change /veh FAM26E (11764081_at) / RFU ISYNA1 (11749810_s_at) / Fold change /veh ISYNA1 (11749810_s_at) / RFU ACY1 (11761880_at) / Fold change /veh ACY1 (11761880_at) / RFU 11764098_at / Fold change /veh 11764098_at / RFU SAMD14 (11745864_x_at) / Fold change /veh SAMD14 (11745864_x_at) / RFU NPB (11741838_a_at) / Fold change /veh NPB (11741838_a_at) / RFU TMPRSS6 (11731388_a_at) / Fold change /veh TMPRSS6 (11731388_a_at) / RFU KRTAP10-2 (11738614_at) / Fold change /veh KRTAP10-2 (11738614_at) / RFU ARHGAP8 /// PRR5-ARHGAP8 (11727945_x_at) / Fold change /veh ARHGAP8 /// PRR5-ARHGAP8 (11727945_x_at) / RFU KRTAP5-7 /// NADSYN1 (11734609_at) / Fold change /veh KRTAP5-7 /// NADSYN1 (11734609_at) / RFU RASL12 (11751679_a_at) / Fold change /veh RASL12 (11751679_a_at) / RFU CDKN2B (11736163_a_at) / Fold change /veh CDKN2B (11736163_a_at) / RFU PRF1 (11729649_at) / Fold change /veh PRF1 (11729649_at) / RFU, ZNF638 /// ZNF638-IT1 / Fold change vs veh, ZNF638 /// ZNF638-IT1 / RFU, PANK3 / Fold change vs veh, PANK3 / RFU, SH3YL1 / Fold change vs veh, SH3YL1 / RFU, ZEB2 / Fold change vs veh, ZEB2 / RFU, NRIP1 / Fold change vs veh, NRIP1 / RFU, PTTG1IP / Fold change vs veh, PTTG1IP / RFU, CAPN2 / Fold change vs veh, CAPN2 / RFU, MED14 / Fold change vs veh, MED14 / RFU, SNORA58 / Fold change vs veh, SNORA58 / RFU, C1orf63 / Fold change vs veh, C1orf63 / RFU, LRRFIP1 / Fold change vs veh, LRRFIP1 / RFU, NDUFAF7 / Fold change vs veh, NDUFAF7 / RFU, SLC12A2 / Fold change vs veh, SLC12A2 / RFU, IBTK / Fold change vs veh, IBTK / RFU, ESF1 / Fold change vs veh, ESF1 / Fold change vs veh, TMEM50B / RFU, TAOK1 / Fold change vs veh, TAOK1 / RFU, ACBD3 / Fold change vs veh, ACBD3 / RFU, TMA16 / Fold change vs veh, TMA16 / RFU, RWDD3 / Fold change vs veh, RWDD3 / RFU, BCAT1 / Fold change vs veh, BCAT1 / RFU, EDEM3 / Fold change vs veh, EDEM3 / RFU, TMEM33 / Fold change vs veh, TMEM33 / RFU, WDR75 / Fold change vs veh, WDR75 / RFU, AHCTF1 / Fold change vs veh, AHCTF1 / RFU, TFRC / Fold change vs veh, TFRC / RFU, ZDHHC17 / Fold change vs veh, ZDHHC17 / RFU, NOM1 / Fold change vs veh, NOM1 / RFU, ARL8B / Fold change vs veh, ARL8B / RFU, ZBTB11 / Fold change vs veh, ZBTB11 / RFU, TAMM41 / Fold change vs veh, TAMM41 / RFU, KIAA1704 /// LOC100996395 / Fold change vs veh, KIAA1704 /// LOC100996395 / RFU, ING1 / Fold change vs veh, ING1 / RFU, TRMT61B / Fold change vs veh, TRMT61B / RFU, FUBP3 / Fold change vs veh, FUBP3 / RFU, TP53 / Fold change vs veh, TP53 / RFU, TNKS2 / Fold change vs veh, TNKS2 / RFU, ZFP14 / Fold change vs veh, ZFP14 / RFU, ACTR2 / Fold change vs veh, ACTR2 / RFU, PPP3R1 / Fold change vs veh, PPP3R1 / RFU, PIK3R1 / Fold change vs veh, PIK3R1 / RFU, HNRNPA1 / Fold change vs veh, HNRNPA1 / RFU, RNF170 / Fold change vs veh, RNF170 / RFU, ZNF28 / Fold change vs veh, ZNF28 / RFU, RNGTT / Fold change vs veh, RNGTT / RFU, OGT / Fold change vs veh, OGT / RFU, BRD1 / Fold change vs veh, BRD1 / RFU, MARS / Fold change vs veh, MARS / RFU, ZNF655 / Fold change vs veh, ZNF655 / RFU, FAHD1 / Fold change vs veh, FAHD1 / RFU, BDP1 / Fold change vs veh, BDP1 / RFU, LRRCC1 / Fold change vs veh, LRRCC1 / RFU, ARID1A / Fold change vs veh, ARID1A / RFU, ZNF146 / Fold change vs veh, ZNF146 / RFU, ZNF330 / Fold change vs veh, ZNF330 / RFU, GPN3 / Fold change vs veh, GPN3 / RFU, C9orf123 / Fold change vs veh, C9orf123 / RFU, N4BP2L2 / Fold change vs veh, N4BP2L2 / RFU, ARFIP1 / Fold change vs veh, ARFIP1 / RFU, FAM179B / Fold change vs veh, FAM179B / RFU, BCL10 / Fold change vs veh, BCL10 / RFU, UHRF1BP1L / Fold change vs veh, UHRF1BP1L / RFU, BET1 / Fold change vs veh, BET1 / RFU, CNOT2 / Fold change vs veh, CNOT2 / RFU, ZNF268 / Fold change vs veh, ZNF268 / Fold change vs veh, ZNF507 / RFU, DGCR2 / Fold change vs veh, DGCR2 / RFU, WDSUB1 / Fold change vs veh, WDSUB1 / Fold change vs veh, HSP90B1 /// MIR3652 / RFU, ADSS / Fold change vs veh, ADSS / RFU, GK / Fold change vs veh, GK / RFU, ZNF148 / Fold change vs veh, ZNF148 / RFU, TAF9 / Fold change vs veh, TAF9 / RFU, SLC1A5 / Fold change vs veh, SLC1A5 / RFU, SLMO2 / Fold change vs veh, SLMO2 / RFU, ABCC4 / Fold change vs veh, ABCC4 / RFU, LOC101060439 /// RAP1B / Fold change vs veh, LOC101060439 /// RAP1B / RFU, RFX7 / Fold change vs veh, RFX7 / RFU, GTPBP10 / Fold change vs veh, GTPBP10 / RFU, CNEP1R1 / Fold change vs veh, CNEP1R1 / RFU, BIVM-ERCC5 /// ERCC5 / Fold change vs veh, BIVM-ERCC5 /// ERCC5 / RFU, ILF3 / Fold change vs veh, ILF3 / RFU 11762660_at / Fold change /veh 11762660_at / RFU VCAN (11757783_s_at) / Fold change /veh VCAN (11757783_s_at) / RFU DDX43 (11728927_at) / Fold change /veh DDX43 (11728927_at) / RFU KRT8 (11758188_x_at) / Fold change /veh KRT8 (11758188_x_at) / RFU NKD1 (11759106_at) / Fold change /veh NKD1 (11759106_at) / RFU SRD5A1 (11742802_a_at) / Fold change /veh SRD5A1 (11742802_a_at) / RFU TPSAB1 /// TPSB2 (11721975_s_at) / Fold change /veh TPSAB1 /// TPSB2 (11721975_s_at) / RFU GSTM3 (11746129_a_at) / Fold change /veh GSTM3 (11746129_a_at) / RFU IL23R (11737362_x_at) / Fold change /veh IL23R (11737362_x_at) / RFU TMEM51 (11727254_a_at) / Fold change /veh TMEM51 (11727254_a_at) / RFU PIWIL2 (11732686_x_at) / Fold change /veh PIWIL2 (11732686_x_at) / RFU ORM1 (11744905_x_at) / Fold change /veh ORM1 (11744905_x_at) / RFU CCDC152 (11743942_at) / Fold change /veh CCDC152 (11743942_at) / RFU ECM1 (11717891_a_at) / Fold change /veh ECM1 (11717891_a_at) / RFU IL23R (11748794_a_at) / Fold change /veh IL23R (11748794_a_at) / RFU TNFAIP8L3 (11732012_x_at) / Fold change /veh TNFAIP8L3 (11732012_x_at) / RFU MBOAT4 (11741988_at) / Fold change /veh MBOAT4 (11741988_at) / RFU 11764193_at / Fold change /veh 11764193_at / RFU TMEM53 (11763286_at) / Fold change /veh TMEM53 (11763286_at) / RFU MAGEB2 (11727129_at) / Fold change /veh MAGEB2 (11727129_at) / RFU TMEM200A (11744735_a_at) / Fold change /veh TMEM200A (11744735_a_at) / RFU CCDC152 (11751479_a_at) / Fold change /veh CCDC152 (11751479_a_at) / RFU FAM211A (11726209_a_at) / Fold change /veh FAM211A (11726209_a_at) / RFU RGS16 (11746705_a_at) / Fold change /veh RGS16 (11746705_a_at) / RFU VCAN (11755009_s_at) / Fold change /veh VCAN (11755009_s_at) / RFU RHOB (11743442_s_at) / Fold change /veh RHOB (11743442_s_at) / RFU RGS16 (11720943_a_at) / Fold change /veh RGS16 (11720943_a_at) / RFU RGS16 (11720944_at) / Fold change /veh RGS16 (11720944_at) / RFU, VPS4B / Fold change vs veh, VPS4B / RFU, CREB1 / Fold change vs veh, CREB1 / RFU, DNAJC13 / Fold change vs veh, DNAJC13 / RFU, GNAQ / Fold change vs veh, GNAQ / RFU, CDK5R1 / Fold change vs veh, CDK5R1 / RFU, ZRANB3 / Fold change vs veh, ZRANB3 / RFU, CUL4A / Fold change vs veh, CUL4A / RFU, CCNY / Fold change vs veh, CCNY / RFU, UFL1 / Fold change vs veh, UFL1 / RFU, COG3 / Fold change vs veh, COG3 / RFU, DIAPH2 / Fold change vs veh, DIAPH2 / RFU, SKA2 / Fold change vs veh, SKA2 / RFU, AFF3 / Fold change vs veh, AFF3 / RFU, LMF1 / Fold change vs veh, LMF1 / RFU, IPO11 / Fold change vs veh, IPO11 / RFU, DFFB / Fold change vs veh, DFFB / RFU, FOXP1 / Fold change vs veh, FOXP1 / RFU, CARD8 / Fold change vs veh, CARD8 / RFU, STRN3 / Fold change vs veh, STRN3 / RFU, ADK / Fold change vs veh, ADK / RFU, RASSF2 / Fold change vs veh, RASSF2 / RFU, WIPF1 / Fold change vs veh, WIPF1 / RFU, LARP1B / Fold change vs veh, LARP1B / RFU, RASA1 / Fold change vs veh, RASA1 / RFU, RB1 / Fold change vs veh, RB1 / RFU, PPFIA1 / Fold change vs veh, PPFIA1 / RFU, MAT2A / Fold change vs veh, MAT2A / RFU, CCT5 / Fold change vs veh, CCT5 / RFU, WDR92 / Fold change vs veh, WDR92 / RFU, CUX1 / Fold change vs veh, CUX1 / RFU, TTC7A / Fold change vs veh, TTC7A / RFU, TMEM135 / Fold change vs veh, TMEM135 / RFU, DEPTOR / Fold change vs veh, DEPTOR / RFU, CPM / Fold change vs veh, CPM / RFU, DNAJB6 / Fold change vs veh, DNAJB6 / RFU, CACNA2D3 / Fold change vs veh, CACNA2D3 / RFU, DTX4 / Fold change vs veh, DTX4 / RFU, TFCP2 / Fold change vs veh, TFCP2 / RFU, GMCL1 /// GMCL1P1 / Fold change vs veh, GMCL1 /// GMCL1P1 / RFU, AEBP2 / Fold change vs veh, AEBP2 / RFU, SNHG1 /// SNORD22 /// SNORD25 /// SNORD26 /// SNORD27 /// SNORD28 /// SNORD29 /// SNORD31 / Fold change vs veh, SNHG1 /// SNORD22 /// SNORD25 /// SNORD26 /// SNORD27 /// SNORD28 /// SNORD29 /// SNORD31 / Fold change (Aza/veh), C12orf56 (ProbeSet 11735607_a_at) / Fold change (ACY-1035/veh), C12orf56 (ProbeSet 11735607_a_at) / Fold change (Aza/veh), FGFR1OP (ProbeSet 11751329_s_at) / Fold change (ACY-1035/veh), FGFR1OP (ProbeSet 11751329_s_at) / Fold change (Aza/veh), VPS36 (ProbeSet 11739960_a_at) / Fold change (ACY-1035/veh), VPS36 (ProbeSet 11739960_a_at) / RFU SYPL1 (11715823_x_at) / Fold change /veh SYPL1 (11715823_x_at) / RFU IGFBP7 (11715501_s_at) / Fold change /veh IGFBP7 (11715501_s_at) / RFU REEP3 (11722064_at) / Fold change /veh REEP3 (11722064_at) / RFU IGLL1 (11728026_x_at) / Fold change /veh IGLL1 (11728026_x_at): dose or concentration left out as unconfirmed
Conditions: MV-4-11 cells, 48 hours

Nc1ccc(-c2cccs2)cc1NC(=O)c1ccc2c(c1)cc(C1CC1)n2CCN1CCOCC1 [ACY-1035]
Fold change /veh EBF3 (11725865_a_at): 1.09
